Patent publication EP0733365A2, “Use of benzoquinolin-3-ones for the treatment and prevention of prostatic cancer” (priority 1995, dated 1996)
“And” between values parts separate entries of the source, which are not always exact repeats. Identical values can stand only once.

What follows are molecules tested against T1, Type I 5α-reductase (Homo sapiens, UniProt P18405) (assay: Human Type I steroid 5α-reductase homogenate assay (conversion of [3H]-testosterone to [3H]-DHT and other 5α-reduced metabolites)). Conditions: 0.3 µM concentration of compound, compared to control reaction mixtures.
T1 construct: Scalp punch biopsies from graft recipient sites were obtained; from tissue; host or cells: human scalp skin (punch biopsies from hair transplant procedures); 100,000 x g pellet of the homogenate
T1 sequence (P18405 1-259): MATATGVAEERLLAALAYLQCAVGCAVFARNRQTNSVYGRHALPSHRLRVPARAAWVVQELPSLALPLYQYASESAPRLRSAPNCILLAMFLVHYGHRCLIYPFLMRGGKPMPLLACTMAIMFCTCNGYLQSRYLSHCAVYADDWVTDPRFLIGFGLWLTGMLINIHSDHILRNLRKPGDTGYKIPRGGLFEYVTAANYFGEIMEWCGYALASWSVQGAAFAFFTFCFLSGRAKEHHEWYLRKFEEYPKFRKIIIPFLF
Type: biochemical
Description: Methodology of Human Type I Steroid 5α-Reductase Assays
Preparation of Type I 5α-Reductase from Human Scalp: Scalp punch biopsies from graft recipient sites were obtained, following the proper Informed Consent and Institutional Review Board guidelines, from human hair transplant procedures immediately after surgery and were frozen on dry ice and stored at -80°C. Approximately 60-75 punches from one surgical procedure were used to generate an enzyme preparation. The subcutaneous tissue was cut away and discarded. The skin was frozen with liquid nitrogen and pulverized to powder. The powder was homogenized in 30 mL of ice-cold buffer (20 mM Tris-HCl, pH 7.5) using a Brinkmann Polytron (Westbury, NY) with a PTA 10-S probe and a setting of 7. The homogenization procedure consisted of four 15 second pulses. Connective tissue was cleared from the probe with forceps between pulses. The homogenate was then filtered through cheese cloth and the filtrate centrifuged at 100,000 x g for one hour in a Beckman L8-60M ultracentrifuge. The pellet was resuspended by homogenization with a Dounce homogenizer using the same buffer solution. An aliquot was taken for protein determination by the Lowry method, Lowry, et al., Protein Measurement with the Folin Phenol Reagent, J. Biol. Chem., 193, 265-75 (1951). Aliquots of the enzyme preparation were stored at -80° until use. Human 5α-Reductase Homogenate Assay: This enzyme assay is based on the conversion of [^3H]-testosterone to [^3H]-5α -dihydrotestosterone (DHT) and other 5α-reduced metabolites. […] In a total volume of 1.0 mL, the Type I assay contained 2.6 µCi [^3H]-testosterone (50 nM), 500 µM of reduced nicotine adenine dinucleotide phosphate, 100 mM Tris-HCl, pH 7.5, (in Type II assays, 40 mM sodium acetate at pH 5.5 is used instead of Tris-HCl) and test compounds as indicated. Test compounds were added in 20 µL of dimethylsulfoxide (20 µL of dimethylsulfoxide was added to blanks and controls). The reaction was initiated by the addition of 0.5 mg of Type I 5α-reductase. The reaction mixture was incubated at 25° for 180 min, and terminated by the addition of 1 mL ice-cold stopping solution. The stopping solution contained 40 µM each of non-radioactive testosterone, DHT, androstenedione, androstanedione, androsterone, androstan-3β17β- diol, and androstan-3α,17β-diol. The samples were prepared for high performance liquid chromatography by solid phase extraction. Disposable solid matrix extraction columns (C-18 reversed phase, 6 mL, 500 mg; Bond Elut™ from Analytichem International; Harbor City, CA) were conditioned by washing with 5 mL of methanol followed by 5 mL of deionized water. The reaction mixtures were then applied to the columns. The columns were subsequently washed with 5 mL of acetone:water (1:4), followed by 0.3 mL of methanol. The samples were then eluted with 3 mL of methanol and collected in 20 mL scintillation vials. Three mL of water was then added to each scintillation vial. The solutions were then transferred to tubes and centrifuged for 30 min at 1000 x g to remove any particulate material before chromatography. The [^3H]-testosterone substrate and its metabolites were separated by chromatography using a C-18 reversed phase column (Beckman Ultrasphere 5µm spherical 80A pore, part no. 235329, 4.6 mm i.d. x […]) with an isocratic mobile phase (46 water: 46 methanol: 8 tetrahydrofuran by volume). The column temperature was maintained at 35° and the flow rate was 1.5 mL/min. A 400 µL aliquot was injected onto the column and radioactivity was determined using a Beckman 171 in-line flow radioisotope detector in conjunction with Rainin Dynamax™ software and a Macintosh computer. The flow rate of the Atomflow™ scintillation fluid was 4.5 mL / min.

| Molecule | percent inhibition of Type I 5AR |
| --- | --- |
| CN1C(=O)CC[C@]2(C)c3ccc(Sc4nc5c(ccc6ccccc65)s4)cc3CC[C@@H]12 [Example 163, (+)-(4aR)-(10bR)-4-methyl-8-(2-naphtho〈1,2-d〉-thiazolylthio)-10b-methyl-1,2,3,4,4a 5,6,10b-octahydrobenzo[f]-quinolin-3-one] | 80% |
| (+)-(4aR)-(10bR)-4-methyl-8-(3-[1-benzyl-4-piperidinylcarboxamidolphenyl)-10b-methyl-1,2,3,4,4a,5,6,10b-octahydrobenzo[f]quinolin-3-one [Example 209] | 24% |
| (+)-(4aR)-(10bR)-4-methyl-8-(2-[6-benzyloxy]naphthyl)-10b-methyl-1,2,3,4,4a,5,6,10b-octahydrobenzo[f]quinolin-3-one [Example 62] | 45% |
| C[C@]12CCC(=O)N[C@@H]1CCc1cc(-c3cnc4ccccc4c3)ccc12 [Example 196, (+)-(4aR)-(10bR)-8-(3-quinolinyl)-10b-methyl-1,2,3,4,4a,-5,6,10b-octahydrobenzo[f]quinolin-3-one] | 11% |
| Cc1cccc2sc(Sc3ccc4c(c3)CC[C@H]3N(C)C(=O)CC[C@]43C)nc12 [Example 159, (+)-(4aR)-(10bR)-4-methyl-8-(4-methyl-2-benzothiazolylthio)-10b-methyl-1,2,3,4,4a,5,6,10b-octahydrobenzo[f]quinolin-3-one] | 87, 87% |

Further lines, results first:

| percent inhibition of Type I 5AR | Molecule |
| --- | --- |
| 90% | (+)-(4aR)-(10bR)-4-methyl-8-benzyloxycarbonyl-10b-methyl-1,2,3,4,4a,5,6,10b-octahydrobenzo[f]quinolin-3-one [Example 144] |
| 16% | (+)-(4aR)-(10bR)-4-methyl-8-(2aR,4S-1-benzoyl-4-amino-2,2a,3,4-tetrahydrobenz[cd]-1H-indol-7-yl)-10b-methyl-1,2,3,4,4a,5,6,10b-octahydrobenzo[f]quinolin-3-one [Example 226] |
| 3% | (+)-(4aR)-(10bR)-4-methyl-8-(4-fluoro-3-trifluoromethylphenyl)-10b-methyl-1,2,3,4,4a,5,6,10b-octahydrobenzo[f]quinolin-3-one [Example 46] |
| 86% | CN1C(=O)CC[C@]2(C)c3ccc(-c4ccc(-c5ccc(NC(=O)C(C)(C)C)s5)cc4)cc3CC[C@@H]12 [Example 222, (+)-(4aR)-(10bR)-4-methyl-8-(4-[(2-t-butylcarbonylamino]-5-thienyl]phenyl)-10b-methyl-1,2,3,4,4a,5,6,10b-octahydrobenzo[f]quinolin-3-one] |
| 47% | (+)-(4aR)-(10bR)-4-methyl-8-(2aR,4S-1-benzoyl-4-dipropylamino-2,2a,3,4-tetrahydrobenz[cd]-1H-indol-7-yl)-10b-methyl-1,2,3,4,4a,5,6,10b-octahydrobenzo[f]quinolin-3-one [Example 225] |

Same assay, conditions: 0.3 µM concentration of compound, compared to control reaction mixtures; 0.3 µM

| Molecule | percent inhibition of Type I 5AR |
| --- | --- |
| CN1C(=O)CC[C@]2(C)c3ccc(Sc4nc5c(Cl)cccc5s4)cc3CC[C@@H]12 [Example 164, (+)-(4aR)-(10bR)-4-methyl-8-(4-chloro-2-benzothiazolylthio)-10b-methyl-1,2,3,4,4a,5,6,10b-octahydrobenzo[f]quinolin-3-one] | 87% |
| CN1C(=O)CC[C@]2(C)c3ccc(-c4cccc5ccccc45)cc3CC[C@@H]12 [Example 53, (+)-(4aR)-(10bR)-4-methyl-8-(1-naphthyl)-10b-methyl-1,2,3,4,4a,5,6,10b-octahydrobenzo[f]quinolin-3-one] | 100% and 66% |
| CN1C(=O)CC[C@]2(C)c3ccc(C=Cc4ccccc4)cc3CC[C@@H]12 [Example 285, (4aR)-(10bR)-4,10b-dimethyl-8-(2-phenylethenyl)-1,2,3,4,4a,5,6,10b-octahydrobenzo[f]quinolin-3-one] | 93% |
| CN1C(=O)CC[C@]2(C)c3ccc(-c4ccc(Cl)cc4)cc3CC[C@@H]12 [Example 50, (+)-(4aR)-(10bR)-4-methyl-8-(4-chlorophenyl)-10b-methyl-1,2,3,4,4a,5,6,10b-octahydrobenzo[f]quinolin-3-one] | 94% |

The remaining lines, values ahead:

| percent inhibition of Type I 5AR | Molecule |
| --- | --- |
| 100% | CN1C(=O)CC[C@]2(C)c3ccc(-c4cc(F)c(F)c(F)c4)cc3CC[C@@H]12 [Example 206, (+)-(4aR)-(10bR)-4-methyl-8-(3,4,5-trifluorophenyl)-10b-methyl-1,2,3,4,4a,5,6,10b-octahydrobenzo[f]quinolin-3-one] |
| 100% | CN1C(=O)CC[C@]2(C)c3ccc(CCc4ccccc4)cc3CC[C@@H]12 [Example 280, (4aR)-(10bR)-4,10b-dimethyl-8-(2-phenylethyl)-1,2,3,4,4a,5,6,10b-octahydrobenzo[f]quinolin-3-one] |

Same assay, conditions: 0.3 µM concentration of compound, compared to control reaction mixtures; read-out: percent inhibition of Type I 5AR

| Molecule | inhibition at 0.3 µM [%] |
| --- | --- |
| C[C@]12C=CC(=O)N[C@@H]1CCc1cc(-c3cc4ccccc4cn3)ccc12 [Example 142, (+)-(4aR)-(10bR)-8-(3-isoquinolinyl)-10b-methyl-3,4,4a,5,6,10b-hexahydrobenzo[f]quinolin-3-one] | 22 |
| C[C@]12CCC(=O)N[C@@H]1CCc1cc(-c3cnc4ccccc4c3)ccc12 (single isomer, unassigned) [Example 45] | 11 |
| CN1C(=O)CC[C@]2(C)c3ccc(-c4ccc(NS(C)(=O)=O)cc4)cc3CC[C@@H]12 [Example 123, (+)-(4aR)-(10bR)-4-methyl-8-(4-methylsulfonamidophenyl)-10b-methyl-1,2,3,4,4a,5,6,10b-octahydrobenzo[f]quinolin-3-one] | 10 |
| C[C@]12CCC(=O)N[C@@H]1CCc1cc(Sc3ccccc3Cl)ccc12 (single isomer, unassigned) [Example 7] | 49 |
| Cc1cccc2sc(Sc3ccc4c(c3)CC[C@H]3N(C)C(=O)CC[C@]43C)nc12 [Example 159, (+)-(4aR)-(10bR)-4-methyl-8-(4-methyl-2-benzothiazolylthio)-10b-methyl-1,2,3,4,4a,5,6,10b-octahydrobenzo[f]quinolin-3-one] | 87 |

Continued, values first:

| inhibition at 0.3 µM [%] | Molecule |
| --- | --- |
| 75 | CN1C(=O)CC[C@]2(C)c3ccc(/C=C/c4cnc5ccccc5c4)cc3CC[C@@H]12 [Example 282, (4aR)-(10bR)-4,10b-dimethyl-8-(2-[3-quinolinyl]ethenyl)-1,2,3,4,4a,5,6,10b-octahydrobenzo[f]quinolin-3-one] |
| 75 | CN1C(=O)CC[C@]2(C)c3ccc(/C=C/c4cncc5ccccc45)cc3CC[C@@H]12 [Example 281, (4aR)-(10bR)-4,10b-dimethyl-8-(2-[4-isoquinolinyl]ethenyl)-1,2,3,4,4a,5,6,10b-octahydrobenzo[f]quinolin-3-one] |
| 54 | CN1C(=O)CC[C@]2(C)c3ccc(-c4ccc5c(c4)CCC5O)cc3CC[C@@H]12 (single isomer, unassigned; (+)) [Example 245] |
| 87 | CN1C(=O)CC[C@]2(C)c3ccc(/C=C/c4ccc5ccccc5n4)cc3CC[C@@H]12 [Example 283, (4aR)-(10bR)-4,10b-dimethyl-8-(2-[2-quinolinyl]ethenyl)-1,2,3,4,4a,5,6,10b-octahydrobenzo[f]quinolin-3-one] |

Same assay, conditions: read-out: percent inhibition of Type I 5AR, 0.3 µM concentration of compound, compared to control reaction mixtures

| Molecule | inhibition at 0.3 µM [%] |
| --- | --- |
| CN1C(=O)CC[C@]2(C)c3ccc(C=Cc4ccccc4)cc3CC[C@@H]12 [Example 279, (4aR)-(10bR)-4,10b-dimethyl-8-(2-phenylethenyl)-1,2,3,4,4a,5,6,10b-octahydrobenzo[f]quinolin-3-one] | 85 |
